Test results reported in ChEMBL document CHEMBL1136865, “Effects of detergents on the West Nile virus protease activity” (Bioorg Med Chem, 2009).
Activity calls are given as the source filed them. The rule behind the calls is not given here.

Key:
[1] = system: West Nile virus; assay: Increase in West Nile virus NS3 protease activity at =>0.01 to 0.1 % by spectrofluorimetry using Boc-Gly-Lys-Arg-AMC substrate relative to control
[2] = system: West Nile virus; assay: Increase in West Nile virus NS3 protease activity up to 0.5% by spectrofluorimetry using Boc-Gly-Lys-Arg-AMC substrate relative to control

Compound: C[C@H](CCC(=O)NCCC[N+](C)(C)CCCS(=O)(=O)[O-])[C@H]1CC[C@H]2[C@@H]3[C@H](O)C[C@@H]4C[C@H](O)CC[C@]4(C)[C@H]3C[C@H](O)[C@]12C
- Activity [1]: inactive
- Activity [2]: inactive
